Where “and” joins values, the source holds several entries; their conditions need not be identical. Equal entries are not always repeated. Marks after values point to notes of the source that are not given here. Each block holds one compound with its values, some of them ahead of it. Square brackets hold non-standard residues; d marks the D form. Peptide text beside a SMILES is read from it.
Experiments:
Aβ40 = assay: Efficacy in reducing Aβ40 in rat plasma (ELISA); assay type: in vivo; conditions: 10 mg/kg SC; for reduction in Aβ40: rat plasma; for Percent Decrease in Aβ 40 in Rat Plasma: mean of 3 rats, negative = decrease
Procedure: (§1) Blood was collected through jugular vein cannulas, and the samples were collected into tubes with K2EDTA. After centrifuging at a temperature of 2 to 8° C. at 4,000×g for 5 minutes, the resulting plasma was split into equal aliquots, frozen, and stored at −60 to −80° C. One aliquot was for PK analysis and the other was for Aβ analysis (see Example 4).
Rats (n=3 per peptide) were administered with P8, 8M1D, or 8M2D (10 mg/kg) subcutaneously, and plasma were collected at 0, 6, 12, and 24 h after dosing and Aβ40 analysis was carried out by ELISA (Invitrogen).

[1] = Pharmacokinetics study in rats, plasma; assay type: in vivo; conditions: rat; for plasma concentration: individual rats
Procedure: (§2) An in-vivo study was carried out in rats to determine the pharmacokinetics (PK) of peptides P8, 8M1D and 8M2D in plasma and CSF. Each peptide was assessed through two dosage routes, intravenous (IV) and subcutaneous (SC). Three rats were assigned to each dose group with each peptide. Total of twelve rats per peptide were used.
as §1

[2] = Metabolic stability of peptides in fresh human plasma (LC/MS/MS); assay type: in vitro ADME; conditions: for rate at which metabolized in fresh human plasma (in words): compared among P8, 8M1 and 8M1D; for % Remaining / remaining at 3 h, 1 µM / remaining at 8 h, 1 µM / remaining at 24 h, 1 µM: fresh human plasma; for % Remaining: 0 h incubation; for remaining at 3 h, 1 µM: 3 h incubation; for remaining at 8 h, 1 µM: 8 h incubation; for remaining at 24 h, 1 µM: 24 h incubation
Procedure: P8, 8M1, and 8M1D were generated according to Example 1 with purities ranging from 98.0% to 99.0%. A primary 1.00 mM stock solution was prepared in either acetonitrile or acetonitrile:water (1:1, v/v) for each peptide. A 0.200 mM working stock was made from the primary stock in acetonitrile:water (1:1, v/v), which was used for the reactions. The primary and working stock solutions were stored at −20° C. when not in use, and they were kept at room temperature for as short a time as possible when in use. Fresh human plasma were maintained by adding sodium heparin as an anticoagulant.
The incubation procedures started when 5.00 μL of 0.2 mM (working stock solutions) of different peptides were added to 0.995 mL of fresh human plasma in a 1.7-mL snap tube. After 3, 8 and 24 hours of incubation, duplicate 50.0 μL aliquots of plasma were removed and placed into extraction tubes containing 150 μL of methanol, which served to quench any reactions, and thus incubations were ended. For each time point, the aliquotes were immediately extracted by vortex mixing and centrifugation. Resulting supernates were stored in High-Performance Liquid Chromatography (HPLC) vials and analyzed by LC/MS/MS after all samples were extracted. Valacyclovir was used as a positive control.
LC/MS/MS analysis of the incubation solutions was conducted by initial separation of the test article peaks using chromatography prior to detection by the mass spectrometer. The LC/MS system was comprised of a HPLC coupled with a TQS-Micro or Quattro Premier (Waters, Milford, Mass.). The mobile phase was nebulized using heated nitrogen in a Z spray source/interface set to electrospray in positive ionization mode for the peptides. The ionized peptides were detected using Tandem Quadropole Mass Spectrometry (MS/MS). The data was acquired using MassLynx (Waters, Milford, Mass.).
HPLC for the peptides and Valacyclovir control were performed with no guard columns, with a flow rate at 0.3 mL/min, with column temperature at 40° C., and autosampler temperature at 10° C. The column for peptides was MacMod ACE 2 Excel C18PFP, 100×2.1-mm, 2.0 μm, and the column for the control was Waters Atlantis T3, 150×2.1-mm, 5.0 μm. The injection loop and volumn for peptides were 50.0 μL and 20.0 μL respectively, and the ones for controls were 20.0 μL and 2.00 μL. For the Mass Spectrometer for the peptides and the Valacyclovir control, the source temperature was set to be 150° C., desolvation temperature was set to be 350° C., and polarity was set to be positive mode of electrospray ionization. Other parameters in HPLC and Mass Spectrometer are shown in Table 2.1, Table 2.2 and Table 3 below.

[3] = Pharmacokinetics study in rats, CSF; assay type: in vivo; design: CSF concentration, Mean IV / CSF concentration, Mean SC: unit not given here; conditions: rat; for CSF concentration, Mean IV: 10 mg/kg IV; for CSF concentration, Mean SC: 10 mg/kg SC
Procedure: as §2
CSF collection was performed by first anesthetizing animals at specified time points (see Table 5) with a mixture of 80 mg/kg ketamine and 8 mg/kg xylazine. The depth of anesthesia was monitored by toe pinches. CSF was collected via the cisterna magna (˜0.05 mL), and it was split into equal aliquots, frozen, and stored at −60 to −80° C.

γ-secretase = conditions: phase III clinical trial, cited from earlier work
[4] = 10 mg/kg IV and SC, at Cmax and most subsequent time points

exposure in plasma compared with P8 (in words) [1, 4]: better exposures than P8
plasma concentration ([1]; 10 mg/kg IV, 0 hr (pre-dose)): BQL
plasma concentration ([1]; 10 mg/kg IV, 0.167 hr, 10 mg/kg, in ng/mL (unit assumed)): 25,600 and 23,000 and 20,200
plasma concentration ([1]; 10 mg/kg IV, 0.5 hr, 10 mg/kg, in ng/mL (unit assumed)): 7,140 and 8,630 and 6,650
plasma concentration ([1]; 10 mg/kg IV, 1 hr, 10 mg/kg, in ng/mL (unit assumed)): 1,680 and 2,160 and 1,580
plasma concentration ([1]; 10 mg/kg IV, 2 hr, 10 mg/kg, in ng/mL (unit assumed)): 215 and 360 and 290
plasma concentration ([1]; 10 mg/kg IV, 4 hr, 10 mg/kg, in ng/mL (unit assumed)): 25.6 and 16.0 and 17.0
plasma concentration ([1]; 10 mg/kg IV, 6 hr, 10 mg/kg): 2.93 ^b and 0.805 ^b and 1.48 ^b
plasma concentration ([1]; 10 mg/kg IV, 8 hr): BQL
plasma concentration ([1]; 10 mg/kg IV, 12 hr): BQL
plasma concentration ([1]; 10 mg/kg IV, 24 hr): BQL
plasma concentration ([1]; 10 mg/kg SC, 0 hr (pre-dose)): BQL
plasma concentration ([1]; 10 mg/kg SC, 0.167 hr, 10 mg/kg): 20,500 ^a and 19,100 and 25,900
plasma concentration ([1]; 10 mg/kg SC, 0.5 hr, 10 mg/kg): 12,300 ^a and 10,900 and 11,800
plasma concentration ([1]; 10 mg/kg SC, 1 hr, 10 mg/kg, in ng/mL (unit assumed)): 5,440 and 4,310 and 3,410
plasma concentration ([1]; 10 mg/kg SC, 2 hr, 10 mg/kg, in ng/mL (unit assumed)): 1,330 and 1,570 and 642
plasma concentration ([1]; 10 mg/kg SC, 4 hr, 10 mg/kg, in ng/mL (unit assumed)): 49.8 and 75.3 and 43.9
plasma concentration ([1]; 10 mg/kg SC, 6 hr, 10 mg/kg): 11.4 and 8.83 ^b and 4.66 ^b
plasma concentration ([1]; 10 mg/kg SC, 8 hr, 10 mg/kg): 1.29 ^b and BQL (2×)
plasma concentration ([1]; 10 mg/kg SC, 12 hr): BQL
plasma concentration ([1]; 10 mg/kg SC, 24 hr): BQL
stability in fresh human plasma (in words) [2]: relatively stable
rate at which metabolized in fresh human plasma (in words) [2]: slowest
% Remaining [2]: 100%
remaining at 3 h, 1 µM [2]: 115%
remaining at 8 h, 1 µM [2]: 100%
remaining at 24 h, 1 µM [2]: 89.6%
time after dosing at which detectable in CSF ([3]; 10 mg/kg IV and SC): ≥ 8 h
exposure in CSF compared with P8 (in words) [3, 4]: better exposures than P8
CSF concentration, Mean IV ([3]; 0 hr): 0
CSF concentration, Mean IV ([3]; 0.5 hr): 67.8
CSF concentration, Mean IV ([3]; 1 hr): 80.8
CSF concentration, Mean IV ([3]; 2 hr): 65
CSF concentration, Mean IV ([3]; 4 hr): 23.4
CSF concentration, Mean IV ([3]; 8 hr): 0.913
CSF concentration, Mean IV ([3]; 12 hr): 0
CSF concentration, Mean IV ([3]; 24 hr): 0.261
CSF concentration, Mean SC ([3]; 0 hr): 0
CSF concentration, Mean SC ([3]; 0.5 hr): 50.9
CSF concentration, Mean SC ([3]; 1 hr): 66.1
CSF concentration, Mean SC ([3]; 2 hr): 62.9
CSF concentration, Mean SC ([3]; 4 hr): 18.9
CSF concentration, Mean SC ([3]; 8 hr): 3.85
CSF concentration, Mean SC ([3]; 12 hr): 0
CSF concentration, Mean SC ([3]; 24 hr): 0
Compound: CC(C)C[C@H](NC(=O)[C@H](CCC(=O)O)NC(=O)[C@H](CCC(=O)O)NC(=O)[C@H](CC(=O)O)NC(=O)[C@H](CCC(=O)O)NC(=O)[C@H](CCC(=O)O)NC(=O)[C@H](CCC(=O)O)NC(=O)[C@H](N)CC(=O)O)C(N)=O [8M1D, dEEEDEEL-NH2] (H-[dD]EEEDEEL-NH2)
reduction in Aβ40 (Aβ40; 12 hr post dosing): about 27%
reduction in Aβ40 (Aβ40; 24 h post dosing): about 19%
Percent Decrease in Aβ 40 in Rat Plasma (Aβ40; 0 h): 0.00%
Percent Decrease in Aβ 40 in Rat Plasma (Aβ40; 6 h): −23.61%
Percent Decrease in Aβ 40 in Rat Plasma (Aβ40; 12 h): −27.34%
Percent Decrease in Aβ 40 in Rat Plasma (Aβ40; 24 h): −19.13%

Compound: CC(C)[C@H](O)C(=O)N[C@@H](C)C(=O)N[C@@H]1C(=O)N(C)CCc2ccccc21 [semagacestat]
functional ability (in words) (γ-secretase; patients receiving the higher dose): significant worsening of functional ability
effect on improving cognitive functions (in words) (γ-secretase; patients): no effects on improving cognitive functions
adverse events (in words) (γ-secretase): more adverse events including skin cancers and infections

rate at which metabolized in fresh human plasma (in words) [2]: fastest
% Remaining [2]: 100%
remaining at 3 h, 1 µM [2]: 87.1%
remaining at 8 h, 1 µM [2]: 65.1%
remaining at 24 h, 1 µM [2]: 47.1%
Compound: H-DEEEDEEL-NH2 [8M1, DEEEDEEL-NH2]

Reference: patent US20220064214A1, “NOVEL PEPTIDES AND USES THEREOF” (CENNA BIOSCIENCES INC., priority 2019, published 2022)
